Test results published in patent US20220348565A1, “PHARMACEUTICAL COMPOUNDS” (SENTINEL ONCOLOGY LIMITED, priority 2019, published 2022).

Assay: Chiral stability (interconversion) of isolated atropisomers on heating, chiral HPLC
Type: physicochemical
Details: for % ee of sample @ 40° C. / % ee sample @ 80° C.: EtOH solution, listed as A-2
Description: Stability studies were carried out on the isolated atropisomers, atropisomers A-1 and A-2. To assess the interconversion of atropisomer A-1 and atropisomer A-2 chiral stability was monitored at 40° C. and 80° C. […] 1. 2×1 mg of pure atropisomer was dissolved in 1 mL of EtOH in a sealed-dram vial. 2. One set of vials was heated at 40° C. and another set at 80° C. 3. […] 4. Analysis was carried out at the following timepoints: 0 h, 24 h, 48 h, 72 h, 96 h and 240 h for the samples kept at 40° C. and 24 h, 96 h and 240 h for the samples kept at 80° C. using Chiral HPLC method 5

For `CN(C)CCNC(=O)c1ccc(-c2ccc(-c3ccc(Cl)cc3)n2-c2ccccc2C(F)(F)F)cc1` (single isomer, unassigned) [Atropisomer A-2, 4-[5-(4-chlorophenyl)-1-[2-(trifluoromethyl)phenyl]pyrrol-2-yl]-N-[2-(dimethylamino)ethyl]benzamide], the “% ee of sample @ 40° C.” value (0 h) was 97.20 % ee, the “% ee of sample @ 40° C.” value (24 h) was 97.34 % ee and the “% ee of sample @ 40° C.” value (48 h) was 97.30 % ee. The “% ee of sample @ 40° C.” value (72 h) was 97.24 % ee, the “% ee of sample @ 40° C.” value (96 h) was 97.14 % ee and the “% ee of sample @ 40° C.” value (10 days) was 97.46 % ee. For the same compound, the “% ee sample @ 80° C.” value (0 h) was 97.20 % ee, the “% ee sample @ 80° C.” value (24 h) was 95.62 % ee and the “% ee sample @ 80° C.” value (96 h) was 96.62 % ee. The “% ee sample @ 80° C.” value (10 days) was 97.12 % ee, the “atropisomer classification (LaPlante)” value (from stability of isolated atropisomers) was “Class 3” and the “interconversion / racemization of atropisomers on heating” value (heating for 10 days at 40° C. and 80° C.) was “no interconversion was observed”.
